Where “and” joins values, the source holds several entries; their conditions need not be identical. Equal entries are not always repeated. Where two headings read alike, the source gives them in different places.
What was measured:
[1] = target: NMDA receptor-associated ionic channel (PCP/TCP binding site); experiment: Displacement of TCP Binding (3H-TCP, membrane preparation of rat cortex)
Method: Phencyclidine (PCP), a known NMDA antagonist, binds to the NMDA receptor-associated ionic channel and blocks ionic transport (Garthwaite & Garthwaite, Neurosci. Lett. 83, 1987, 241-246).
The interaction between compounds of formula (I) and the PCP bond is studied in the following. In this test ^3 H-TCP, a PCP analogue, is used.
A membrane preparation of rat cortex is incubated with ^3 H-TCP which is an analogue of phencyclidine (PCP) (Quirion & Pert 1982, Eur. J. Pharmacol. 83:155). The interaction with the TCP binding is assessed for test compound no. 1 (1-amino-3,5-dimethyl adamantane) in a competitive experiment. […] The conclusion can be drawn that compound no. 1 binds to NMDA receptor channels at the same site as the NMDA antagonist PCP.

NMDA receptor channel = experiment: Blocking of NMDA Receptor Channels (patch-clamp, cultivated spinal marrow neurons); assay type: cell-based, mouse; conditions: 20 μM NMDA and 6 μM of adamantane derivative; current integrated 20 sec; means ± SEM
Method: In the following test it is shown that the compounds of formula (I) according to the invention are as effective as PCP in blocking the NMDA receptor channel.
In the patch-clamp experiment, the current flowing through NMDA-activated membrane channels of cultivated spinal marrow neurons (mouse) is measured (Hamill et al 1981, Pflugers Arch. 312: 85-100). After application of 20 μM NMDA, the current signal of the cell is integrated for 20 sec. and recorded as a control answer (Ac). During succeeding application of 20 μM NMDA and 6 μM of an adamantane derivative, the intensity of the substance effect can be determined as a relative change of the control answer (A/Ac -A=test answer).

[2] = tested on: electrically induced convulsions; experiment: Anticonvulsive Effect (supermaximum electroshock test in mice); assay type: in vivo, mouse; conditions: for ED50 / Anticonvulsive action (score), Mean: i.p.; for ED50: electroshock 40 min after application, estimated according to Litchfield and Wilcoxon; for Anticonvulsive action (score): i.p., 4, 12, 36, 108 and 324 mg/kg, protected animals added over all dosages, maximum = 25, individual scores; for Anticonvulsive action (score), Mean: mean of scores, maximum = 25
Method: 4, 12, 36, 108 and 324 mg/kg of the test substance is administered to mice by the intraperitoneal route (5 animals per dose). The supermaximum electroshock test is applied forty (40) minutes after application of the substance to investigate the anti-convulsive potential of the substance. The protected animals are added up over all dosages (score; maximum=25 animals).

[3] = tested on: neurons in the CA1-CA4 region of the hippocampus; experiment: Protection Against Cerebral Ischemia (carotid occlusion in rats, hippocampal histology); assay type: in vivo, rat; conditions: for damaged neurons, area CA1 / damaged neurons, area CA3 / damaged neurons, area CA4: single administration 1 h prior to ischemia, ± SEM
Method: Both carotid arteries are occluded in rats for 10 minutes. […] The ischemia is terminated by opening the carotids and reinfusion of the withdrawn blood. After seven days the brains of the test animals are histologically examined for cellular changes in the CA1-CA4 region of the hippocampus, and the percentage of destroyed neurons is determined.

NMDA-induced mortality = experiment: Protection Against NMDA-Induced Mortality (mice); assay type: in vivo, mouse; conditions: 200 mg/kg NMDA i.p.
Method: It is well known that, subsequent to cerebral ischemia, glutamate and aspartate levels increase massively in the brain. These excitatory aminoacids overstimulate the NMDA-subtype of the glutamate receptor thus leading to delayed neuronal death. A similar pathophysiological situation is obtained when mice are administered intraperitoneally with 200 mg/kg NMDA. This high dose will eventually cause 100% mortality in the animals (Leander et al. 1984, Brain Res. 448; 115-120).

[4] = tested on: MK-801 binding site of the NMDA receptor channel; conditions: as reported in the foregoing publication (Kornhuber et al. 1989); cited from earlier work
[5] = tested on: brain cells after cerebral ischemia; conditions: rats; Sauer et al. 1988; cited from earlier work
[6] = target: MK-801 binding site of the NMDA receptor channel; experiment: Displacement of [3H] MK-801 Binding in Human Brain Tissue (frontal cortex homogenates); conditions: [3H] MK-801 (3 nM), mean of triplicate experiments
Method: MK-801 binds to the ion channel associated with the NMDA receptor, as well as TCP does. This binding site is thought to mediate the neuroprotective effects of non-competitive NMDA-antagonists.
We have investigated whether the adamantane derivatives of the present invention are active at the MK-801 binding site. Tissue from frontal cortex was taken from patients at autopsy and homogenates were prepared. Inhibition of specific [^3 H] MK-801 binding (3 nM) by the test compounds was determined (see e.g. Kornhuber et al. 1989, Eur. J. Pharmacol. 166: 589-590).
wherein Ki is the inhibition constant and nM is nanomoles per liter. Mean values from triplicate experiments are given ± S.E.M.
The inhibition constant Ki is approximately equal to the concentration of the adamantane in nM required to displace 50% of the MK-801 specifically bound to the receptor.

[7] = Mus musculus, ip, 40 min, read-out: ED50

SMILES | 1-A/Ac (NMDA receptor channel) | ED50 [2, 7] [mg/kg] | Anticonvulsive action (score) ([2]; 40 min) | Anticonvulsive action (score), Mean ([2]; 40 min) | Protected Animals (NMDA-induced mortality; 25 mg/kg) | Protected Animals (NMDA-induced mortality; 50 mg/kg) | Ki [6] [µM] | other results
CC12CC3CC(C)(C1)CC(N)(C3)C2 [Compound no. 1, 1-amino-3,5-dimethyl adamantane] | 0.66 ± 0.05 | 16 | 18 and 16 and 15 | 16.3 | 6/8 | 8/8 | – | IC50 ([1]; membrane preparation of rat cortex, competitive experiment): 0.089 µM; displacement of TCP from the bond (in words) ([1]; rat cortex membranes): very effective; damaged neurons, area CA1 ([3]; 5 mg/kg (n = 5)): 83.0 ± 2.2%; damaged neurons, area CA3 ([3]; 5 mg/kg (n = 5)): 7.3 ± 1.8%; damaged neurons, area CA4 ([3]; 5 mg/kg (n = 5)): 3.7 ± 1.7%; damaged neurons, area CA3 ([3]; 20 mg/kg (n = 6)): 2.7 ± 1.0%; damaged neurons, area CA4 ([3]; 20 mg/kg (n = 6)): 0.6 ± 0.3%; damaged neurons, area CA1 ([3]; 20 mg/kg (n = 6), **p < 0.01 (U test)): 53.1 ± 6.1%; reduction of post-ischemic neuronal brain damage in the CA1 region (in words) ([3]; pre-ischemic application of 20 mg/kg, rat hippocampus): statistically significant; physiological parameters (e.g. blood pressure, body temperature) ([3]; rats, during ischemia test): not affected by the treatment; Protected Animals (NMDA-induced mortality; 10 mg/kg): 3/8; potency compared with thirteen other clinically-used and centrally-acting drugs (in words) [4]: most potent compound
C[C@]12N[C@H](Cc3ccccc31)c1ccccc12 [MK-801, 5-methyl-10,11-dihydro-5H-dibenzo[a,d]cycloheptene-5,10-imine, reference compound] | 0.60 ± 0.05 | < 1 | 25 | 25.0 | – | – | – | –
c1ccc(C2(N3CCCCC3)CCCCC2)cc1 [PCP, Phencyclidine, reference compound] | 0.50 ± 0.04 | – | 19 | 19.0 | – | – | – | ED50 [2]: 9 mg/kg; prevention of destruction of brain cells after cerebral ischemia (in words) [5]: prevent the destruction of brain cells after cerebral ischemia in rats
CCC12CC3CC(CC(N)(C3)C1)C2 [compound 2, 1-amino-3-ethyl adamantane] | 0.44 ± 0.08 | 30 | 15 and 14 and 12 | 13.7 | – | – | – | –
CC(C)C12CC3CC(CC(N)(C3)C1)C2 [compound 3, 1-amino-3-isopropyl adamantane] | 0.58 ± 0.07 | – | – | – | 4/8 | 6/8 | 0.598 | –
CCC12CC3CC(N)(C1)CC(CC)(C3)C2 [compound 4, 1-amino-3,5-diethyl adamantane] | 0.50 ± 0.11 | 24 | 16 and 11 | 14.3 | 5/8 | 7/8 | 0.189 | –
CNC12CC3CC(C)(CC(C)(C3)C1)C2 [compound 5, 1-N-methylamino-3,5-dimethyl adamantane] | 0.56 ± 0.07 | 13 | 17 | 17.0 | 5/8 | – | 1.61 | –
CCNC12CC3CC(C)(CC(C)(C3)C1)C2 [compound 6, 1-N-ethylamino-3,5-dimethyl adamantane] | 0.38 ± 0.05 | – | – | – | – | – | – | –
NC12CC3CC(C1)CC(C1CCCCC1)(C3)C2 [compound 7, 1-amino-3-cyclohexyl adamantane] | 0.25 ± 0.04 | – | – | – | – | – | – | –
CCC12CC3(C)CC(C)(CC(N)(C3)C1)C2 [compound 8, 1-amino-3,5-dimethyl-7-ethyl adamantane] | 0.50 ± 0.03 | – | – | – | – | – | – | –
